The results in this text go back to US10918601B2, “Spray-dried pharmaceutical compositions comprising active agent nanoparticles” (Besins Healthcare Luxembourg SARL, priority 2013, dated 2021).

SMILES strings stand for the structures.

This data set is described as follows: Particle size of mometasone furoate before milling, after roller milling and after spray drying. The class given is physicochemical. The settings on record: before roller milling. On the procedure: Spray Drying Conditions: Inlet temperature=110° C.; Outlet temperature=54° C.; Aspirator=100%; Pump rate=20%; Q flow=50%; Nozzle cap=1.5 mm.
Roller Milling Conditions: Mometasone Furoate—initial median size—19.7 μm. Samples are milled in 250 mL jars for 3 hours with 0.5 mm YTZ media. Particle size diameter (PSD), after 3 hours milling, is measured in water. After milling, the suspension is extracted (needle 22G) from jars and mixed according the table and procedure shown. Procedure for Preparation of the Spray Drying Suspensions: The amounts of HPMC, MCC and H2O used is based on the extracted quantity of the suspension (Table II). HPMC is added as a solution prepared in H2O. HPMC solution is added to the extracted suspension and mixed for 15 minutes. MCC (Grade PH-F20JP, 20 μm) is added and mixed for 15 minutes. Particle size diameter (PSD) is measured after spray drying by dispersing the spray-dried powder in a liquid such as isopropyl palmitate or silicone oil, which are non-solvents for the components and will not alter particle size or cause disintegration of the composite particle. Materials: Mometasone Furoate (Hovione, East Windsor, N.J.); Citric acid, anhydrous (Fisher, Hampton, N.H.); Benzalkonium chloride (Fluka, St. Louis, Mo.); Microcrystalline cellulose (AsahKasei, Glenview, Ill.); Hydroxypropylmethyl cellulose (Colorcon, Harleysville, Pa.). […]

For `C[C@@H]1C[C@H]2[C@@H]3CCC4=CC(=O)C=C[C@]4(C)[C@@]3(Cl)[C@@H](O)C[C@]2(C)[C@@]1(OC(=O)c1ccco1)C(=O)CCl` [Mometasone Furoate, (11β,16α)-9,21-dichloro-11-hydroxy-16-methyl-3,20-dioxopregna-1,4-dien-17-yl 2-furoate], the initial median size is listed as 19.7 μm.
